# Laboratory results from patent publication US20090068290A1, “BIFEPRUNOX DOSES FOR TREATING SCHIZOPHRENIA” (priority 2006, published 2009).
# Experiments:
# Type in all cases: in vivo, human
# [1] = system: adult subjects with schizophrenia; test: BPRS total score, Clinical Study One; details: ITT population
# Experimental: There were five treatment groups in this study. […] Study medication was administered once daily. After Baseline measurements were performed, the titration phase was begun. Bifeprunox treated subjects were titrated up to 5 mg, 10 mg or 20 mg according to a standardized titration schedule (Day 1: 0.125 mg, Day 2: 0.25 mg, Day 3: 0.5 mg, Day 4: 1.0 mg, Day 5: 2.0 mg, Day 6: 5.0 mg, Day 7: 10.0 mg, Day 8: 20 mg). When the assigned dose was reached, subjects were maintained at that dose for the remainder of the six-week treatment period.
# The change in the Positive and Negative Symptom Scale (PANSS) total score, from baseline to endpoint, was the primary outcome measure. Secondary efficacy measures included: PANSS positive, PANSS negative, PANSS general psychopathology (GPP) score, PANSS-derived Brief Psychiatric Rating Scale (BPRS) score, Clinical Global Impressions-Severity of Illness (CGI-S), CGI-Improvement (CGI-I) scores, and responder rates. Safety and tolerability evaluations included extrapyramidal symptoms (EPS), weight gain, lipid profile, and serum prolactin.
# [2] = system: adult subjects with schizophrenia; test: CGI responder rate, Clinical Study Two; details: LOCF
# Experimental: Notable differences were also observed between the 30 mg bifeprunox group and placebo for the change from baseline to endpoint in PANSS general psychopathology subscale score, BPRS total score, BPRS psychosis cluster score, PANSS responder rate, and CGI-I responder rate. In the study, a PANSS responder refers to a subject whose PANSS total score decreased by 20% or more from baseline to endpoint. A CGI-I responder refers to a subject who was categorized as “very much improved” or “much improved” in the CGI Global Improvement scale at endpoint.
# Pharmacokinetic (PK) data of bifeprunox in schizophrenic subjects were also assessed and are presented in a separate report (combined with data from study S1543003).
# Subjects who completed this study had the option to continue in the long-term. […] Risperidone-treated subjects were titrated from 2 mg to 6 mg daily over a three-day period and were subsequently maintained at 6 mg/day for the remainder of the treatment period. […] Blood samples were also obtained at Screening/Baseline, Week 3, and Week 6 for clinical laboratory assessments.
# CLINICAL STUDY TWO: A CGI responder is defined as a subject who is categorized as “very much improved” or “much improved” on the CGI Improvement scale. […] A notable difference between the 30 mg bifeprunox group and placebo was seen (p=0.039).
# [3] = system: adult subjects with schizophrenia; test: BPRS total score, Clinical Study Three
# Source text: SECONDARY OBJECTIVES To assess the efficacy of bifeprunox in treating schizophrenia using the Positive Symptom sub-scale score of the PANSS, the Negative Symptom sub-scale score of the PANSS, the General Psychopathology sub-scale of the PANSS, Brief Psychiatric Rating Scale (BPRS) total score derived from the PANSS, BPRS psychosis score derived from the PANSS, the Clinical Global Impression Severity of Illness score (CGI-S), the Clinical Global Impression Improvement score (CGI-I), CGI-I responder rate, PANSS responder rate based on the PANSS total score, Calgary Depression Scale for Schizophrenia (CDSS), and Subject Satisfaction rating.
# There were four treatment arms in this study, approximately 144 subjects per arm. […] After completing the Single-Blind Placebo Lead-in Period of at least three days, bifeprunox-treated subjects were titrated from 0.25 mg up to 20 mg/day or 30 mg/day according to a standardized titration scheme over a seven- or eight-day period, respectively. When the assigned dose was reached, subjects were maintained at that dose for the remainder of the six week treatment period. […] Subjects were hospitalized (if not already inpatients) after eligibility for study entry was verified, starting from the Screening Visit until at least 10 days after Baseline. Subjects could be hospitalized longer than 10 days if considered medically necessary by the Investigator. Rating scale assessments for efficacy and abnormal movement disorders were done weekly except for Week 5. […] Subject satisfaction with study medication was assessed at Week 6.
# [4] = Bifeprunox 10 mg, Endpoint LOCF
# [5] = Bifeprunox 20 mg, Endpoint LOCF
# [6] = Bifeprunox 20 mg, Week 1, LOCF, ITT population
# [7] = Bifeprunox 20 mg, Week 2, LOCF, ITT population
# [8] = Bifeprunox 20 mg, Week 3, LOCF, ITT population
# [9] = Bifeprunox 20 mg, Week 4, LOCF, ITT population
# [10] = Bifeprunox 20 mg, Week 6/Endpoint, LOCF, ITT population
# [11] = Bifeprunox 30 mg, Week 1, LOCF, ITT population
# [12] = Bifeprunox 30 mg, Week 2, LOCF, ITT population
structure (smiles),measurement,setting,value
"O=c1[nH]c2cccc(N3CCN(Cc4cccc(-c5ccccc5)c4)CC3)c2o1 [Bifeprunox, 7-[4-([1,1′-biphenyl]-3-ylmethyl)-1-piperazinyl]-2(3H)-benzoxazolone]","Change from Baseline in BPRS Total Score, Mean (S.D.)","[1]; Bifeprunox 5 mg, Endpoint LOCF",−6.2 (10.5)
same,"Change from Baseline in BPRS Total Score, Median","[1]; Bifeprunox 5 mg, Endpoint LOCF",−5
same,"Change from Baseline in BPRS Total Score, Trt Effect (bifeprunox—placebo)","[1]; Bifeprunox 5 mg, Endpoint LOCF",−2.4
same,"Change from Baseline in BPRS Total Score, Mean (S.D.)","[1]; Bifeprunox 5 mg, Week 1, LOCF",−2.4 (7.5)
same,"Change from Baseline in BPRS Total Score, Median","[1]; Bifeprunox 5 mg, Week 1, LOCF",−3
same,"Change from Baseline in BPRS Total Score, Mean (S.D.)","[1]; Bifeprunox 5 mg, Week 2, LOCF",−4.2 (8.6)
same,"Change from Baseline in BPRS Total Score, Median","[1]; Bifeprunox 5 mg, Week 2, LOCF",−4
same,"Change from Baseline in BPRS Total Score, Mean (S.D.)","[1]; Bifeprunox 5 mg, Week 3, LOCF",−5.2 (9.7)
same,"Change from Baseline in BPRS Total Score, Median","[1]; Bifeprunox 5 mg, Week 3, LOCF",−5
same,"Change from Baseline in BPRS Total Score, Mean (S.D.)","[1]; Bifeprunox 5 mg, Week 4, LOCF",−5.6 (10.2)
same,"Change from Baseline in BPRS Total Score, Median","[1]; Bifeprunox 5 mg, Week 4, LOCF",−5
same,"Change from Baseline in BPRS Total Score, Mean (S.D.)",[1]; [4],−3.4 (11.5)
same,"Change from Baseline in BPRS Total Score, Median",[1]; [4],−2
same,"Change from Baseline in BPRS Total Score, Trt Effect (bifeprunox—placebo)",[1]; [4],−0.6
same,"Change from Baseline in BPRS Total Score, Mean (S.D.)","[1]; Bifeprunox 10 mg, Week 1, LOCF",−2.0 (7.2)
same,"Change from Baseline in BPRS Total Score, Median","[1]; Bifeprunox 10 mg, Week 1, LOCF",−1
same,"Change from Baseline in BPRS Total Score, Mean (S.D.)","[1]; Bifeprunox 10 mg, Week 2, LOCF",−3.1 (9.3)
same,"Change from Baseline in BPRS Total Score, Median","[1]; Bifeprunox 10 mg, Week 2, LOCF",−3
same,"Change from Baseline in BPRS Total Score, Mean (S.D.)","[1]; Bifeprunox 10 mg, Week 3, LOCF",−3.3 (10.9)
same,"Change from Baseline in BPRS Total Score, Median","[1]; Bifeprunox 10 mg, Week 3, LOCF",−2
same,"Change from Baseline in BPRS Total Score, Mean (S.D.)","[1]; Bifeprunox 10 mg, Week 4, LOCF",−3.1 (10.7)
same,"Change from Baseline in BPRS Total Score, Median","[1]; Bifeprunox 10 mg, Week 4, LOCF",−3
same,"Change from Baseline in BPRS Total Score, Mean (S.D.)",[1]; [5],−7.6 (10.1)
same,"Change from Baseline in BPRS Total Score, Median",[1]; [5],−8
same,"Change from Baseline in BPRS Total Score, Trt Effect (bifeprunox—placebo)",[1]; [5],−3.5
same,"Change from Baseline in BPRS Total Score, Mean (S.D.)","[1]; Bifeprunox 20 mg, Week 1, LOCF",−4.3 (7.3)
same,"Change from Baseline in BPRS Total Score, Median","[1]; Bifeprunox 20 mg, Week 1, LOCF",−3
same,"Change from Baseline in BPRS Total Score, Mean (S.D.)","[1]; Bifeprunox 20 mg, Week 2, LOCF",−6.1 (8.8)
same,"Change from Baseline in BPRS Total Score, Median","[1]; Bifeprunox 20 mg, Week 2, LOCF",−7
same,"Change from Baseline in BPRS Total Score, Mean (S.D.)","[1]; Bifeprunox 20 mg, Week 3, LOCF",−7.5 (9.1)
same,"Change from Baseline in BPRS Total Score, Median","[1]; Bifeprunox 20 mg, Week 3, LOCF",−8
same,"Change from Baseline in BPRS Total Score, Mean (S.D.)","[1]; Bifeprunox 20 mg, Week 4, LOCF",−7.7 (9.7)
same,"Change from Baseline in BPRS Total Score, Median","[1]; Bifeprunox 20 mg, Week 4, LOCF",−8
same,"CGI Responder at Endpoint No, %",[2]; 30 mg,64%
same,"CGI Responder at Endpoint Yes, %",[2]; 30 mg,36%
same,"CGI Responder at Endpoint No, %",[2]; 40 mg,72%
same,"CGI Responder at Endpoint Yes, %",[2]; 40 mg,28%
same,CGI-I responder rate (subjects much or very much improved) at Endpoint,[2]; bifeprunox 30 mg,36%
same,CGI-I responder rate (subjects much or very much improved) at Endpoint,[2]; bifeprunox 40 mg,28%
same,"BPRS total score, treatment effect (bifeprunox—placebo)","[3]; 'the mg bifeprunox group' (dose not given), Endpoint LOCF",−2.1
same,mean change (SD) from Baseline to Endpoint in BPRS total score,"[3]; 'the mg bifeprunox group' (dose not given), LOCF, ITT",−7.9 (12.0)
same,"Change from Baseline in BPRS Total Score, Mean (SD)",[3]; [6],−3.2 (7.3)
same,"Change from Baseline in BPRS Total Score, Median",[3]; [6],−3
same,"Change from Baseline in BPRS Total Score, Mean (SD)",[3]; [7],−6.0 (9.1)
same,"Change from Baseline in BPRS Total Score, Median",[3]; [7],−7
same,"Change from Baseline in BPRS Total Score, Mean (SD)",[3]; [8],−7.5 (10.3)
same,"Change from Baseline in BPRS Total Score, Median",[3]; [8],−8
same,"Change from Baseline in BPRS Total Score, Mean (SD)",[3]; [9],−8.1 (11.3)
same,"Change from Baseline in BPRS Total Score, Median",[3]; [9],−9
same,"Change from Baseline in BPRS Total Score, Mean (SD)",[3]; [10],−8.5 (11.9)
same,"Change from Baseline in BPRS Total Score, Median",[3]; [10],−8
same,"Change from Baseline in BPRS Total Score, Trt Effect (bifeprunox—placebo)",[3]; [10],−2.1
same,"Change from Baseline in BPRS Total Score, Mean (SD)",[3]; [11],−3.6 (7.3)
same,"Change from Baseline in BPRS Total Score, Median",[3]; [11],−4
same,"Change from Baseline in BPRS Total Score, Mean (SD)",[3]; [12],−5.2 (9.3)
same,"Change from Baseline in BPRS Total Score, Median",[3]; [12],−6
